According to patent US8637484B2, “Modulation of growth hormone receptor expression and insulin-like growth factor expression” (Antisense Therapeutic Limited, priority 2003, dated 2014):
Marks after values point to notes of the source that are not given here. In the oligonucleotide strings, read from the 5' end, every base follows the letter of its sugar. An asterisk marks phosphorothioate; unmarked linkages are phosphodiester. Other units and linkages are bracketed, terminal groups are in braces. A string of capitals states the bases alone. e = 2'-O-(2-methoxyethyl) (MOE); [5mC] = 5-methylcytosine; d = 2'-deoxy (DNA)

Legend:
[1] = tested on: serum IGF-I; assay: Serum IGF-I, two-week mouse study; type: in vivo; details: for % decrease relative to 3 mg/kg ISIS 227446: day 14
Description: (§1) A two-week study was done in similar fashion to the one-week study in Example 18, this time using ISIS 227446 at doses of 3, 5, 10, 20 and 30 mg/kg. The mismatch control was given at the same doses. Mice were treated with antisense compound or saline every other day for 14 days.
P-values were determined by t-test.

[2] = tested on: blood vessel profiles (BVPs) in the inner retina; assay: Oxygen-induced retinopathy (ROP) in mice, blood vessel profiles in the inner retina; type: in vivo, mouse
Description: Oxygen-induced retinopathy (also called retinopathy of prematurity or ROP) in laboratory animals is a widely used model for the study of retinal microvascular complications. Wilkinson-Berka et al., 2003, Invest. Opthalmol. V is Sci. 44, 974; Morayski, C. et al., 2000, Hypertension, 36,1099-1104.
To produce ROP, seven-day-old mice were placed in an infant incubator with their nursing mother in 75% oxygen from postnatal day 7 to day 12 as described in the literature. Smith et al., 1994, Invest Ophthalmol V is Sci 35, 101-111; Robinson et al., Proc Natl Acad Sci USA., 1996, May 14; 93, 4851-6. On postnatal day 12, the animals were returned to room air. Animals were sacrificed on postnatal day 17 when maximal neovascularization is observed. Sham-treated animals are handled similarly but are maintained in room air at all times.
Mice were dosed with antisense oligonucleotide in saline (total volume […]) at postnatal days 12, 13, 14, 15, and 16 or days 7, 8, 9, 11, 13, 15 and 17. Oligonucleotide was administered intraperitoneally at concentrations of 5, 10, 20 and 30 mg/kg. The mismatch control ISIS 261303 is also given.
Blood vessel profiles (BVPs) in the inner retina are quantitated in eyes from 36 experimental groups. Each group contains 8 retina from 8 different mice. Tables 7, 8 and 9 indicate 1) from which groups eyes have been collected to date for sectioning and 2) how many animals have had BVPs quantitated to date in each experimental group.
“Early intervention” (“Early I” in Tables 8-10) is used to describe mice pups that have been administered agents at postnatal days 7, 8, 9, 11, 13, 15 and 17 (7 doses). “Late intervention” (“Late I” in Tables 7-10) is used to describe mice pups administered agents at postnatal days 12, 13, 14, 15 and 16 (5 doses). All treatments were by intraperitoneal injection. Counting of blood vessel profiles (BVPs) in the inner retina is performed in a masked manner by investigators blinded to the experimental groups.

[3] = tested on: serum IGF-I; assay: Serum IGF-I, additional 1 week study in mice; type: in vivo, mouse; details: 50 mg/kg once every 2 days, day 7
Description: Male Balb/C(a) mice were prepared and grouped for analysis as in Example 18 above.
Animals (n=10/group) were designated to the following treatment groups:
Animals were treated and serum IGF-I levels were measured as in Example 18 above. Briefly, for the one-week study, mice were given a subcutaneous dose of saline every second day, and mismatch control or antisense with administration on days 0, 2, 4, 6. On day 7, the animals were anaesthetized with pentobarbital and non-fasting blood samples collected exactly 5 minutes later from the retrobulbar plexus through heparinized capillary tubes under light ether anesthesia. Serum IGF-I measurement was done by radioimmunoassay at day 7.

[4] = Body weight, growth and organ weights, 1 week pilot study; type: in vivo, mouse; details: 1 week study; g/total body weight
Description: Saline, antisense, mismatch control and octreotide samples were prepared, and coded for blinding. Animals were given a subcutaneous dose of saline every second day, and mismatch control or antisense with administration on days 0, 2, 4, 6. Animals were given twice daily doses of 25 μg octreotide. Animals were housed 4 per cage, for the duration of one week. They had access to a pre-determined quantity of standard mouse food and water at all times throughout the experiment. They were housed in a quiet, temperature- and humidity-maintained environment for the entirety of the study. At day 0 and before treatment on each day or second day, the animals had their body weight and food intake measured, enabling the correct dose of agent to be administered. The animals were monitored closely for any changes in fur, skin, eye, locomotion or other changes in behavior. No problems were observed. Every second day from day −7 to day 7 body weight and food intake were measured.
The serum remaining following the insulin-like growth factor-1 assay was isolated and stored at −80° C. The whole liver was removed rapidly for weighing and snap-frozen in labelled aluminum parcels by submersion in liquid-nitrogen. […]
This confirms published results of others. […] Weight was measured in two ways: weight trend (live animal), and final carcass weight. […]

[5] = tested on: growth hormone receptor mRNA; assay: Growth hormone receptor mRNA levels in liver, two-week mouse study; type: in vivo
Description: as §1
Growth hormone receptor mRNA levels in liver tissue samples from treated and untreated mice in this two-week study were assayed. The growth hormone receptor antisense inhibitor ISIS 227446 reduced growth hormone receptor mRNA levels in liver after the two-week study by 50% at the 20 mg/kg dose relative to saline control (p<0.001). The 30 mg/kg dose of ISIS 227446 yielded a 53% decrease in growth hormone receptor mRNA (p<0.0001). The mismatch control oligonucleotide ISIS 261303 (SEQ ID NO: 267), at 30 mg/kg, reduced growth hormone receptor mRNA levels by approximately 3%.

acaaagatccatacctgaga (eA*e[5mC]*eA*eA*eA*dG*dA*dT*d[5mC]*d[5mC]*dA*dT*dA*d[5mC]*d[5mC]*eT*eG*eA*eG*eA; antisense) [ISIS 227446]
Day 14 serum IGF-I ([1]; 3 mg/kg every other day for 14 days): 214 ng/mL | effect on serum IGF-I levels ([1]; 3 mg/kg, 14 days, equivalent to saline control (separate experiment)): no effect | % decrease relative to 3 mg/kg ISIS 227446 ([1]; 3 mg/kg): 0% | Day 14 serum IGF-I ([1]; 5 mg/kg every other day for 14 days): 194 ng/mL | % decrease relative to 3 mg/kg ISIS 227446 ([1]; 5 mg/kg): 9% | Day 14 serum IGF-I ([1]; 10 mg/kg every other day for 14 days): 130 ng/mL | % decrease relative to 3 mg/kg ISIS 227446 ([1]; 10 mg/kg): 39% | Day 14 serum IGF-I ([1]; 20 mg/kg every other day for 14 days): 122 ng/mL | % decrease relative to 3 mg/kg ISIS 227446 ([1]; 20 mg/kg): 43% | Day 14 serum IGF-I ([1]; 30 mg/kg every other day for 14 days): 126 ng/mL | % decrease relative to 3 mg/kg ISIS 227446 ([1]; 30 mg/kg): 41% | decrease in serum IGF-I levels compared to 3 mg/kg ([1]; >10 mg/kg, 14 days): 39-43% | Average # BVPs ([2]; ROP + 5 mg/kg ip, Early I): 28.25 | Average # BVPs ([2]; ROP + 5 mg/kg ip, Late I): 25.19 | Average # BVPs ([2]; ROP + 10 mg/kg ip, Early I): 23.18 | Average # BVPs ([2]; ROP + 30 mg/kg ip, Late I): 24.24 | Average # BVPs ([2]; Sham + 20 mg/kg ip, Early I (postnatal days 7, 8, 9, 11, 13, 15, 17)): 9.97* | Average # BVPs ([2]; Sham + 30 mg/kg ip, Early I): 10.94* | Average # BVPs ([2]; Sham + 30 mg/kg ip, Late I (postnatal days 12-16)): 11.25* | effect on blood vessel profiles in sham-treated (no retinopathy) mice ([2]; early intervention): no effect | reduction of serum IGF-I relative to saline control [3]: 33% | reduction of serum IGF-I relative to the unrelated control [3]: 20% | liver weight [4]: unaffected | reduction of growth hormone receptor mRNA levels in liver relative to saline control ([5]; 20 mg/kg): 50% | decrease in growth hormone receptor mRNA in liver ([5]; 30 mg/kg): 53%
